This assay deals with T1, human PDE5 (Homo sapiens, UniProt O76074).
T1 construct: from tissue; host or cells: platelets from fresh blood of human donors (lysate, 10,000 g supernatant)
Nature of the assay: Inhibition of the type 5 phosphodiesterase (PDE5) activity, modified SPA test with platelet lysate. The assay is classed as biochemical. The conditions noted are these: PDE5 from human platelet lysate, 0.5 μM cGMP. The gist of the method: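 SPA-based cGMP hydrolysis, [3H]cGMP tracer in 0.5 μM cGMP, by sonicated human platelet lysate; motapizone (1 μM) and a PDE2 inhibitor (10 nM) block other PDEs. Reaction 15 min at 37 °C after 5 min preincubation, quenched with beads containing IBMX. IC50 from concentration-effect curves.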
In general, IC50 refers to the point on the concentration scale where inhibition reaches its midpoint. High values mean weaker potency, low ones greater potency. Take `CCOC(=O)N[C@H]1CC[C@H](NC(=O)c2c[nH]c3c(-c4cc(C)ccc4OCC4CC4)ncnc23)CC1` [Example 122, trans-(4-{[4-(2-Cyclopropylmethoxy-5-methyl-phenyl)-5H-pyrrolo[3,2-d]pyrimidine-7-carbonyl]-amino}-cyclohexyl)-carbamic acid ethyl ester]: the IC50 is 1380 pM.

The compound `CC(=O)N1CCC(NC(=O)c2c[nH]c3c(-c4cc(C)ccc4OCC4CC4)ncnc23)CC1` [Example 123, 4-(2-Cyclopropylmethoxy-5-methyl-phenyl)-5H-pyrrolo[3,2-d]pyrimidine-7-carboxylic acid (1-acetyl-piperidin-4-yl)-amide] had an IC50 of 1820 pM. The IC50 values of the last two compounds are within 1.5-fold of each other.

In turn, `COCC(=O)N1CCC(NC(=O)c2c[nH]c3c(-c4cc(C)ccc4OCC4CC4)ncnc23)CC1` [Example 124, 4-(2-Cyclopropylmethoxy-5-methyl-phenyl)-5H-pyrrolo[3,2-d]pyrimidine-7-carboxylic acid [1-(2-methoxy-acetyl)piperidin-4-yl]-amide] gave an IC50 of 2190 pM.

The compound `CCOC(=O)N1CCC(NC(=O)c2c[nH]c3c(-c4cc(C)ccc4OCC4CC4)ncnc23)CC1` [Example 125, 4-{[4-(2-Cyclopropylmethoxy-5-methyl-phenyl)-5H-pyrrolo[3,2-d]pyrimidine-7-carbonyl]-amino}-piperidine-1-carboxylic acid ethyl ester] showed an IC50 of 1170 pM. Compared with the last compound, the IC50 is about 1.9-fold lower.

For `CC(=O)N[C@H]1CC[C@H](NC(=O)c2c[nH]c3c(-c4c(OCC5CCC5)ccc5c4OCO5)ncnc23)CC1` [Example 126, trans-4-(5-Cyclobutylmethoxy-benzo[1,3]dioxol-4-yl)-5H-pyrrolo[3,2-d]pyrimidine-7-carboxylic acid (4-acetylamino-cyclohexyl)-amide], the IC50 is 468 pM. This IC50 is about 2.5-fold lower than that of the compound before.

For the compound `COCC(=O)N[C@H]1CC[C@H](NC(=O)c2c[nH]c3c(-c4c(OCC5CCC5)ccc5c4OCO5)ncnc23)CC1` [Example 128, trans-4-(5-Cyclobutylmethoxy-benzo[1,3]dioxol-4-yl)-5H-pyrrolo[3,2-d]pyrimidine-7-carboxylic acid [4-(2-methoxy-ethanoylamino)-cyclohexyl]-amide], the IC50 was 209 pM. This IC50 lies about 2.2-fold lower than the previous one.

With `CC(=O)N1CCC(NC(=O)c2c[nH]c3c(-c4c(OCC5CCC5)ccc5c4OCO5)ncnc23)CC1` [Example 129, 4-(5-Cyclobutylmethoxy-benzo[1,3]dioxol-4-yl)-5H-pyrrolo[3,2-d]pyrimidine-7-carboxylic acid (1-acetyl-piperidin-4-yl)-amide], the IC50 was 389 pM.

For the compound `O=C(NC1CCN(C(=O)C2CC2)CC1)c1c[nH]c2c(-c3c(OCC4CCC4)ccc4c3OCO4)ncnc12` [Example 130, 4-(5-Cyclobutylmethoxy-benzo[1,3]dioxol-4-yl)-5H-pyrrolo[3,2-d]pyrimidine-7-carboxylic acid [1-(1-cyclopropyl-methanoyl)-piperidin-4-yl]-amide], it took 126 pM to reach half-maximal inhibition (IC50).

For the compound `COCC(=O)N1CCC(NC(=O)c2c[nH]c3c(-c4c(OCC5CCC5)ccc5c4OCO5)ncnc23)CC1` [Example 131, 4-(5-Cyclobutylmethoxy-benzo[1,3]dioxol-4-yl)-5H-pyrrolo[3,2-d]pyrimidine-7-carboxylic acid [1-(2-methoxy-ethanoyl)-piperidin-4-yl]amide], half-maximal inhibition (IC50) required 490 pM.

For the compound `CCOC(=O)N1CCC(NC(=O)c2c[nH]c3c(-c4c(OCC5CCC5)ccc5c4OCO5)ncnc23)CC1` [Example 132, 4-({1-[4-(5-Cyclobutylmethoxy-benzo[1,3]dioxol-4-yl)-5H-pyrrolo[3,2-d]pyrimidin-7-yl]-methanoyl}-amino)-piperidine-1-carboxylic acid ethyl ester], the IC50 was 295 pM.

In turn, `CCOc1ccc2c(c1-c1ncnc3c(C(=O)NC4CCN(C(=O)CC)CC4)c[nH]c13)OCO2` [Example 133, 4-(5-Ethoxy-benzo[1,3]dioxol-4-yl)-5H-pyrrolo[3,2-d]pyrimidine-7-carboxylic acid (1-propionyl-piperidin-4-yl)-amide] showed an IC50 of 631 pM.

Compound `CCOC(=O)N1CCC(NC(=O)c2c[nH]c3c(-c4c(OCC)ccc5c4OCO5)ncnc23)CC1` [Example 134, 4-{[4-(5-Ethoxy-benzo[1,3]dioxol-4-yl)-5H-pyrrolo[3,2-d]pyrimidine-7-carbonyl]-amino}-piperidine-1-carboxylic acid ethyl ester] showed an IC50 of 347 pM.

The compound `CCOc1ccc2c(c1-c1ncnc3c(C(=O)NC4CCN(C(=O)COC)CC4)c[nH]c13)OCO2` [Example 135, 4-(5-Ethoxy-benzo[1,3]dioxol-4-yl)-5H-pyrrolo[3,2-d]pyrimidine-7-carboxylic acid [1-(2-methoxy-acetyl)piperidin-4-yl]-amide] showed an IC50 of 2000 pM. Compared with the last compound, the IC50 is about 5.8-fold higher.

Consider `CCOc1ccc2c(c1-c1ncnc3c(C(=O)N[C@@H]4CCN(C(=O)CC)C4)c[nH]c13)OCO2` [Example 136, 4-(5-Ethoxy-benzo[1,3]dioxol-4-yl)-5H-pyrrolo[3,2-d]pyrimidine-7-carboxylic acid ((R)-1-propionyl-pyrrolidin-3-yl)-amide], for which half-maximal inhibition (IC50) was put at 3720 pM.

`CCOC(=O)N1CC[C@@H](NC(=O)c2c[nH]c3c(-c4c(OCC)ccc5c4OCO5)ncnc23)C1` [Example 137, (R)-3-{[4-(5-Ethoxy-benzo[1,3]dioxol-4-yl)-5H-pyrrolo[3,2-d]pyrimidine-7-carbonyl]-amino}-pyrrolidine-1-carboxylic acid ethyl ester] had an IC50 of 2240 pM.

For the compound `CCOc1ccc2c(c1-c1ncnc3c(C(=O)N[C@@H]4CCN(C(=O)COC)C4)c[nH]c13)OCO2` [Example 138], the IC50 is 6030 pM. Compared with the last compound, the IC50 is about 2.7-fold higher.

Consider `CCCOc1ccc2c(c1-c1ncnc3c(C(=O)NC4CCN(C(=O)CC)CC4)c[nH]c13)OCO2` [Example 139, 4-(5-Propoxy-benzo[1,3]dioxol-4-yl)-5H-pyrrolo[3,2-d]pyrimidine-7-carboxylic acid (1-propionyl-piperidin-4-yl)-amide], for which the 50% inhibitory concentration (IC50) is 204 pM.

The compound `CCCOc1ccc2c(c1-c1ncnc3c(C(=O)NC4CCN(C(=O)OCC)CC4)c[nH]c13)OCO2` [Example 140, 4-{[4-(5-Propoxy-benzo[1,3]dioxol-4-yl)-5H-pyrrolo[3,2-d]pyrimidine-7-carbonyl]-amino}-piperidine-1-carboxylic acid ethyl ester] gave an IC50 of 148 pM.

`CCCOc1ccc2c(c1-c1ncnc3c(C(=O)N[C@@H]4CCN(C(=O)CC)C4)c[nH]c13)OCO2` [Example 141, 4-(5-Propoxy-benzo[1,3]dioxol-4-yl)-5H-pyrrolo[3,2-d]pyrimidine-7-carboxylic acid ((R)-1-propionyl-pyrrolidin-3-yl)-amide] showed an IC50 of 933 pM. This IC50 lies about 6.3-fold higher than the previous one.

`CCCOc1ccc2c(c1-c1ncnc3c(C(=O)N[C@@H]4CCN(C(=O)OCC)C4)c[nH]c13)OCO2` [Example 142, (R)-3-{[4-(5-Propoxy-benzo[1,3]dioxol-4-yl)-5H-pyrrolo[3,2-d]pyrimidine-7-carbonyl]amino}-pyrrolidine-1-carboxylic acid ethyl ester] had an IC50 of 617 pM.

In the case of `CCCOc1ccc2c(c1-c1ncnc3c(C(=O)N[C@@H]4CCN(C(=O)COC)C4)c[nH]c13)OCO2` [Example 143, 4-(5-Propoxy-benzo[1,3]dioxol-4-yl)-5H-pyrrolo[3,2-d]pyrimidine-7-carboxylic acid [(R)-1-(2-methoxy-acetyl)-pyrrolidin-3-yl]amide], the IC50 was 1510 pM. Compared with the last compound, the IC50 is about 2.4-fold higher.

`CCCCOc1ccc2c(c1-c1ncnc3c(C(=O)NC4CCN(C(=O)CC)CC4)c[nH]c13)OCO2` [Example 144, 4-(5-Butoxy-benzo[1,3]dioxol-4-yl)-5H-pyrrolo[3,2-d]pyrimidine-7-carboxylic acid (1-propionyl-piperidin-4-yl)-amide] had an IC50 of 115 pM.

Regarding `CCCCOc1ccc2c(c1-c1ncnc3c(C(=O)NC4CCN(C(=O)OCC)CC4)c[nH]c13)OCO2` [Example 145, 4-{[4-(5-Butoxy-benzo[1,3]dioxol-4-yl)-5H-pyrrolo[3,2-d]pyrimidine-7-carbonyl]-amino}-piperidine-1-carboxylic acid ethyl ester], the midpoint of inhibition, the IC50, lay at 100 pM.

For the compound `CCCCOc1ccc2c(c1-c1ncnc3c(C(=O)NC4CCN(C=O)CC4)c[nH]c13)OCO2` [Example 146, 4-(5-Butoxy-benzo[1,3]dioxol-4-yl)-5H-pyrrolo[3,2-d]pyrimidine-7-carboxylic acid (1-formyl-piperidin-4-yl)-amide], the half-maximal inhibitory concentration (IC50) is 229 pM.

With `CCCCOc1ccc2c(c1-c1ncnc3c(C(=O)NC4CCCN(C(=O)CC)C4)c[nH]c13)OCO2` (centres unmarked) [Example 147, 4-(5-Butoxy-benzo[1,3]dioxol-4-yl)-5H-pyrrolo[3,2-d]pyrimidine-7-carboxylic acid (1-propionyl-piperidin-3-yl)-amide], inhibition was half-maximal at 240 pM (IC50).

In turn, `CCCCOc1ccc2c(c1-c1ncnc3c(C(=O)NC4CCCN(C(=O)OCC)C4)c[nH]c13)OCO2` (centres unmarked) [Example 148, 3-{[4-(5-Butoxy-benzo[1,3]dioxol-4-yl)-5H-pyrrolo[3,2-d]pyrimidine-7-carbonyl]-amino}-piperidine-1-carboxylic acid ethyl ester] gave an IC50 of 407 pM.

In the case of `CCCCOc1ccc2c(c1-c1ncnc3c(C(=O)NC4CCCN(C(=O)COC)C4)c[nH]c13)OCO2` (centres unmarked) [Example 149, 4-(5-Butoxy-benzo[1,3]dioxol-4-yl)-5H-pyrrolo[3,2-d]pyrimidine-7-carboxylic acid [1-(2-methoxy-acetyl)piperidin-3-yl]-amide], the IC50 was 295 pM.

Regarding `CCCCOc1ccc2c(c1-c1ncnc3c(C(=O)N[C@@H]4CCN(C(=O)CC)C4)c[nH]c13)OCO2` [Example 150, 4-(5-Butoxy-benzo[1,3]dioxol-4-yl)-5H-pyrrolo[3,2-d]pyrimidine-7-carboxylic acid ((R)-1-propionyl-pyrrolidin-3-yl)-amide], the IC50 was 389 pM. The IC50 values of the last two compounds are within 1.5-fold of each other.

Compound `CCCCOc1ccc2c(c1-c1ncnc3c(C(=O)N[C@@H]4CCN(C(=O)OCC)C4)c[nH]c13)OCO2` [Example 151, (R)-3-{[4-(5-Butoxy-benzo[1,3]dioxol-4-yl)-5H-pyrrolo[3,2-d]pyrimidine-7-carbonyl]amino}-pyrrolidine-1-carboxylic acid ethyl ester] had an IC50 of 295 pM.

Source of the values: patent US8445501B2, “Substituted 7-carboxamido-pyrrolo[3,2-d]pyrimidines” (Takeda GmbH, priority 2008, dated 2013).
